Data as given in PMC539285, “Anti-Plasmodium activity of ceramide analogs” (Malaria Journal, 2004).
Like-named read-outs stand apart in the source and are kept apart here.

Experiments:
[1] = test system: chloroquine-resistant strain FcB1 of P. falciparum; experiment: Anti-Plasmodium activity, [3H]hypoxanthine microdilution on asynchronous cultures; assay type: cell-based, Plasmodium falciparum; conditions: for IC90 / IC50: Plasmodium falciparum; for IC90: 48 h, 90% growth inhibition, read-out: CI90 (the source's name)
Protocol: P. falciparum strains (FcB1/Colombia, K1/Thailand, F32/Tanzania, W2/Indochina) were maintained in continuous culture on human erythrocytes in RPMI medium containing 7% (v/v) heat-inactivated human serum under an atmosphere of 3% CO2, 6% O2, 91% N2, at 37°C, as described by Trager and Jensen. Parasite synchronization was performed successively by treatment with 5% (w/v) sorbitol and by concentration in gelatin solution as previously described.
Drug susceptibility assays were performed using a modification of the semi automated microdilution technique of Desjardins et al.. Stock solutions of test compounds were prepared in DMSO. Drug solutions were serially diluted twofold with 100 μl culture medium in 96-well plates. Asynchronous parasite cultures (100 μl, 1 % parasitemia and 1 % final hematocrite) were added to each well and incubated for 24 hours at 37°C prior to the addition of 0.5 μCi of [^3H] hypoxanthine (Amersham, France, 1 to 5 Ci.mmol/ml) per well. After a further incubation of 24 hour, plates were frozen and thawed. Cell lysates were then collected onto glass-filter papers and counted in a liquid scintillation spectrometer. The growth inhibition for each drug concentration was determined by comparison of the radioactivity incorporated in the treated culture with that in the control culture (having the same final % of DMSO) maintained on the same plate. The concentration causing 50% growth inhibition (IC50) and 90% growth (IC90) were obtained from the drug concentration-response curve and the results were expressed as the means ± the standard deviations determined from several independent experiments.

human MRC-5 cells = experiment: Cytotoxicity test upon human embryonic cells (MTT); assay type: cell-based; conditions: for IC50: Homo sapiens, MRC5, 120 h, MRC-5, five days, MTT, mean of three experiments; for Index of selectivity: ratio of the IC50 value on MRC-5 cells to that on P. falciparum
Protocol: (§1) A human diploid embryonic lung cell line (MRC-5, Bio-Whittaker 72211D) was used to assess the cytotoxic effects towards eukaryotic host cells. MRC-5 cells were seeded at 5,000 cells per well in 100 μl. After 24 hours, the cells were washed and two-fold dilutions of the drug were added in 200 μl standard culture medium (RPMI medium + 5% fetal calf serum) and maintained for five days under 5% CO2 atmosphere. The final DMSO concentration in the culture remained below 0.1%. Untreated cultures were included as controls. The cytotoxicity was determined using the colorimetric MTT assay according to the manufacturer's recommendations (Cell proliferation kit I, Roche Applied Science, France) and scored as a percentage of reduction in absorption at 540 nm of treated cultures versus untreated control cultures. […] The results were expressed as the mean ± the standard deviations determined from several independent experiments. The index of selectivity was defined as the ratio of the IC50 value on MRC-5 to that of P. falciparum.

[2] = Cytotoxicity test upon human embryonic cells (MTT); assay type: cell-based; conditions: human, MRC-5 human diploid embryonic lung cells; MRC-5, five days, MTT; mean of three experiments
Protocol: as §1

[3] = test system: P. falciparum synchronized cultures; experiment: Parasite stage-specific inhibitory effects and reversibility (Giemsa-stained smears); assay type: cell-based, Plasmodium falciparum; conditions: trophozoite stage, 250 nM (data not shown)
Protocol: Synchronized cultures (1–2% parasitemia) at the ring stage (0–10 hours old parasites), the trophozoite stage (25–35 hours old parasites) and the schizonte stage (40–48 hours old parasites) were maintained in the presence of drug concentrations in the vicinity of IC50 values. Aliquots were removed at the indicated times, washed three times with culture medium and maintained in culture in the absence or in the presence of a given drug. […] Parasitaemias were determined by counting 3,000 cells for each sample. Controls consisted of parasites incubated with DMSO instead of drugs processed in the same way.
To investigate the cytostatic or cytotoxic effects of AD2646 on the parasite development, cultures at the ring stage (0–10 hours), the trophozoite stage (25–35 hours) and the schizonte stage (40–48 hours) were incubated with 30, 100 or 250 nM of AD2646 for 24.5 hours for the ring stage, for 11 hours for the trophozoite stage, and for 14 hours for the schizonte stage. Aliquots were then taken, washed and incubated in the absence or the presence of drug for a further 13 hours to 24 hours depending upon the parasite stage tested (see Figure 5). Parasitaemia and parasite stages were determined on Giemsa-stained smears at time of aliquot removal and after the subsequent incubation.

[4] = Figure 2, series A (amide linkage), strain FcB1
[5] = Figure 2, series A (amide linkage), strain FcB1, read-out: CI50 (the source's name)
[6] = Figure 3, series B, strain FcB1
[7] = Figure 3, series B (methylene or thiourea linkage), strain FcB1, read-out: CI50 (the source's name)
[8] = FCB1, Figure 4, selected derivatives, read-out: IC50

Compound | IC90 [1, 4] [µM] | IC50 [1, 5] [µM] | IC90 [1, 6] [µM] | IC50 [1, 7] [µM] | also measured
CCCCCCCC(=O)N[C@H](CO)[C@H](O)c1ccc([N+](=O)[O-])cc1 [AD2494] | 70 | 13.1 | – | – | –
CCCCCCCCCCCCCCCC(=O)N[C@H](CO)[C@H](O)c1ccc([N+](=O)[O-])cc1 [AD2495] | 20.3 ± 1.4 | 10.8 ± 2.3 | – | – | –
CCCC(=O)N[C@@H](CO)[C@@H](O)c1ccc([N+](=O)[O-])cc1 [AD2549] | – | > 100 | – | – | –
CCCCCCCC(=O)N[C@@H](CO)[C@@H](O)c1ccc([N+](=O)[O-])cc1 [AD2550] | > 100 | 64.1 | – | – | –
CCCCCCCCCCCC(=O)N[C@H](CO)[C@H](O)c1ccc([N+](=O)[O-])cc1 [AD2552] | 36.3 ± 16.1 | 16.5 ± 6.5 | – | – | –
CCCCCCCCCCCCCC(=O)N[C@H](CO)[C@H](O)c1ccc([N+](=O)[O-])cc1 [AD2557] | 37.8 ± 15.3 | 17.2 ± 5.5 | – | – | –
CCCCCCCCCCCCCCCCCC(=O)N[C@H](CO)[C@H](O)c1ccc([N+](=O)[O-])cc1 [AD2558] | > 50 | 34.3 | – | – | –
CCCCCCCCCCCCCC(=O)N[C@@H](CO)[C@@H](O)c1ccc([N+](=O)[O-])cc1 [AD2560] | 36 ± 18.2 | 18.7 ± 6.5 | – | – | –
CCCC(=O)N[C@H](CO)[C@H](O)c1ccc([N+](=O)[O-])cc1 [AD2583] | 67.4 | 26.8 | – | – | –
O=C(CCCO)N[C@H](CO)[C@H](O)c1ccc([N+](=O)[O-])cc1 [AD2589] | – | > 100 | – | – | –
CC(=O)N[C@H](CO)[C@H](O)c1ccc([N+](=O)[O-])cc1 [AD2590] | – | > 100 | – | – | –
CCCCCCCC(=O)Nc1ccc([C@@H](O)[C@@H](CO)NC(=O)CCC)cc1 [AD2603] | > 100 | 70.1 | – | – | –
CCCCCCCCCCCC(=O)Nc1ccc([C@@H](O)[C@@H](CO)NC(=O)CCC)cc1 [AD2604] | > 100 | 70 | – | – | –
CCCCCCCCCCCCCCCC(=O)Nc1ccc([C@@H](O)[C@@H](CO)NC(=O)CCC)cc1 [AD2605] | – | > 100 | – | – | –
CCCC(=O)N[C@H](CO)[C@H](O)c1ccc(NC(=O)CCC(=O)O)cc1 [AD2606] | – | > 100 | – | – | –
CCCC(=O)Nc1ccc([C@@H](O)[C@@H](CO)NC(=O)CCC)cc1 [AD2607] | – | > 100 | – | – | –
CCCCCCCCCCCCCCCCN[C@H](CO)[C@H](O)c1ccc([N+](=O)[O-])cc1 [AD2619] | – | – | 0.073 ± 0.005 | 0.0428 ± 0.0085 | IC50 (human MRC-5 cells): 26.7 µM; Index of selectivity (human MRC-5 cells): 624; IC90 at 5 days [2]: 42.3 µM
CCCCCCCCCCCCCCCC(=O)N[C@H](CO)[C@H](O)c1ccc(N)cc1 [AD2623] | 81.3 | 40.4 | – | – | –
CCCCCCCCCCCCCCN[C@@H](CO)[C@@H](O)c1ccc([N+](=O)[O-])cc1 [AD2645] | – | – | 0.104 ± 0.001 | 0.0379 ± 0.0021 | IC50 (human MRC-5 cells): 6.1 µM; Index of selectivity (human MRC-5 cells): 161; IC90 at 5 days [2]: 10.3 µM
CCCCCCCCCCCC(=O)Nc1ccc([C@@H](O)[C@H](N)CO)cc1 [AD2648] | 9.6 | 4.9 | – | – | –

Compound | IC90 [1, 4] [µM] | IC50 [1, 5] [µM] | IC90 [1, 6] [µM] | IC50 [1, 7] [µM] | also measured
CCCCCCNc1ccc([C@@H](O)[C@@H](CO)NCCCCCC)cc1 [AD2651] | – | – | 0.135 ± 0.019 | 0.0857 ± 0.0232 | parasite development, trophozoite stage [3]: complete inhibition of parasite development
CCCCCCCCNc1ccc([C@@H](O)[C@@H](CO)NCCCCCCCC)cc1 [AD2670] | – | – | 0.069 ± 0.003 | 0.0337 ± 0.0037 | parasite development, trophozoite stage [3]: complete inhibition of parasite development
CCCCCCCCCCCCCCN[C@H](CO)[C@H](O)c1ccc(N)cc1 [AD2672] | – | – | 2.6 ± 0.65 | 1.7 ± 0.2 | IC50 (human MRC-5 cells): 3.7 µM; Index of selectivity (human MRC-5 cells): 2; IC90 at 5 days [2]: 5.9 µM
CCCCCCCCCCCCCCNC(CO)Cc1ccccc1 (centres unmarked) [AD2729] | – | – | – | – | reduction of anti-Plasmodium activity by removal of the carbon 3 hydroxyl group ([1]; AD2729 compared with AD2730): 13.5 times; IC50 [1, 8]: 0.258 ± 0.0107 µM; IC50 (human MRC-5 cells): 5.8 µM; Index of selectivity (human MRC-5 cells): 22; IC90 at 5 days [2]: 9.8 µM
CCCCCCCCCCCCCCN[C@H](CO)[C@H](O)c1ccccc1 [AD2730] | – | – | – | – | IC50 [1, 8]: 0.0189 ± 0.0017 µM; IC50 (human MRC-5 cells): 6.1 µM; Index of selectivity (human MRC-5 cells): 322; IC90 at 5 days [2]: 9.9 µM
CCN[C@H](CO)[C@H](O)c1ccc([N+](=O)[O-])cc1 [AD-2212] | – | – | – | > 33 | –
CCNC(=S)N[C@H](CO)[C@H](O)c1ccc([N+](=O)[O-])cc1 [AD-2215] | – | – | – | > 50 | –
CCCCNC(=S)N[C@H](CO)[C@H](O)c1ccc([N+](=O)[O-])cc1 [AD-2216] | – | – | 13.9 ± 7.1 | 1.13 ± 0.24 | –
CC(C)(C)NC(=S)N[C@H](CO)[C@H](O)c1ccc([N+](=O)[O-])cc1 [AD-2217] | – | – | 0.958 ± 0.013 | 0.574 ± 0.05 | –
CCCCN[C@H](CO)[C@H](O)c1ccc([N+](=O)[O-])cc1 [AD-2493] | – | – | 5.1 ± 0.15 | 0.78 ± 0.07 | –
CCCCCCCCCCCCCCCCCCCCN[C@H](CO)[C@H](O)c1ccc([N+](=O)[O-])cc1 [AD-2554] | – | – | – | > 200 | –
CCCCCCCCCCCCN[C@H](CO)[C@H](O)c1ccc([N+](=O)[O-])cc1 [AD-2617] | – | – | 0.304 ± 0.007 | 0.0171 ± 0.0053 | –
CCCCCCCCCCCCNc1ccc([C@@H](O)[C@@H](CO)NCCCCCCCCCCCC)cc1 [AD-2653] | – | – | 5.5 | 3.25 | –
CCCCNc1ccc([C@@H](O)[C@@H](CO)NCCCC)cc1 [AD-2664] | – | – | 2.4 ± 0.7 | 1.3 ± 0.2 | –
CCCCCCCCCCCCCCN[C@H](CO)[C@H](O)c1ccc(NCC)cc1 [AD-2677] | – | – | 2.7 | 1.48 | –
CCCCCCCCCCCCCCN[C@H](CO)[C@H](O)c1ccc(NC(C)=O)cc1 [AD-2678] | – | – | 10.6 | 5.8 | –
CCCCCCCCCCCCCCN[C@H](CO)[C@H](O)c1ccc(NC(=O)CCCCC)cc1 [AD-2680] | – | – | 5.5 | 3.3 | –
CCCCCCCCCCCCCCN[C@H](C)[C@H](O)c1ccccc1 [AD-2724] | – | – | – | – | IC50 [1, 8]: 0.0334 ± 0.0031 µM
CCN(CC)CCCC(C)Nc1ccnc2cc(Cl)ccc12 (centres unmarked) [chloroquine, reference compound] | – | – | – | – | IC50 ([1]; FCB1): 0.115 ± 0.025 µM
